Measured values: patent publication US8796256B2 (Janssen Pharmaceutica NV, priority 2010, dated 2014)

target: T1, ERR1 (also known as ERR-α or ERR-1) (Homo sapiens, UniProt P11474); experiment: TR-FRET assay (disruption of co-activator peptide binding to ERR1 LBD); format: biochemical; details: 6 nM 6His-ERR1LBD, 6 nM GST-SRC-2 peptide; average of 3 independent experiments
T1 sequence (P11474 193-421 limits assumed): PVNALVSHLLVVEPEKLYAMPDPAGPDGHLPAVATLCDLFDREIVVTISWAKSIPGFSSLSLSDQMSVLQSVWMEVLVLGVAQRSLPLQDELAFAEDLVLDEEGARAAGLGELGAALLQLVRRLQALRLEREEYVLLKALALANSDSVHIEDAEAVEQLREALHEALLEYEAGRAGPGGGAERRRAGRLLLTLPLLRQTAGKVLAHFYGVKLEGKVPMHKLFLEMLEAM
Outline: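 Homogeneous TR-FRET measuring displacement of GST-hSRC2 co-activator peptide (6 nM) from His-tagged ERR1 LBD (6 nM), detected with α-GST Eu cryptate (30 nM) and α-His-XL665 (7.5 nM). Buffer 25 mM Tris pH 8, 2.5 mM Hepes, 20 mM KCl, 1 mM DTT, 0.05 mg/mL delipidated BSA; equilibration 4-18 h at 25° C. Hyperbolic dose-response fit, mean of 3 experiments.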

| EC50 | Structure (SMILES) |
| --- | --- |
| 51 nM | O=C1S/C(=C\c2ccc3c(cnn3Cc3ccc(Cl)cc3C(F)(F)F)c2)C(=O)N1C1CCCNC1 (stereo not drawn) [Compound 124, (5Z)-5-({1-[4-Chloro-2-(trifluoromethyl)benzyl]-1H-indazol-5-yl}methylidene)-3-piperidin-3-yl-1,3-thiazolidine-2,4-dione] |
| 47 nM | O=C1S/C(=C\c2ccc3c(cnn3Cc3ccc(Cl)cc3C(F)(F)F)c2)C(=O)N1[C@@H]1CCOC1 [Compound 125, (5Z)-5-({1-[4-Chloro-2-(trifluoromethyl)benzyl]-1H-indazol-5-yl}methylidene)-3-[(3R)-tetrahydrofuran-3-yl]-1,3-thiazolidine-2,4-dione] |
| 32 nM | CN1C(=O)S/C(=C\c2ccc3c(cnn3Cc3ccc(Cl)cc3C(F)(F)F)c2)C1=O [Compound 127, (5Z)-5-({1-[4-Chloro-2-(trifluoromethyl)-benzyl]-1H-indazol-5-yl}methylidene)-3-methyl-1,3-thiazolidine-2,4-dione] |
| 18 nM | CS(=O)(=O)CCN1C(=O)S/C(=C\c2ccc3c(cnn3Cc3ccc(Cl)cc3C(F)(F)F)c2)C1=O [Compound 129, (5Z)-5-({1-[4-Chloro-2-(trifluoromethyl)benzyl]-1H-indazol-5-yl}methylidene)-3-[2-(methylsulfonyl)ethyl]-1,3-thiazolidine-2,4-dione] |
| 33 nM | O=C1S/C(=C\c2ccc3c(cnn3Cc3ccc(Cl)cc3C(F)(F)F)c2)C(=O)N1CC1CCNCC1 [Compound 130, (5Z)-5-({1-[4-Chloro-2-(trifluoromethyl)benzyl]-1H-indazol-5-yl}methylidene)-3-(piperidin-4-ylmethyl)-1,3-thiazolidine-2,4-dione] |
| 5 nM | O=C1OCCN1CCN1C(=O)S/C(=C\c2ccc3c(cnn3Cc3ccc(Cl)cc3C(F)(F)F)c2)C1=O [Compound 131, (5Z)-5-({1-[4-Chloro-2-(trifluoromethyl)benzyl]-1H-indazol-5-yl}methylidene)-3-[2-(2-oxo-1,3-oxazolidin-3-yl)ethyl]-1,3-thiazolidine-2,4-dione] |
| 20 nM | CN1CC(N2C(=O)S/C(=C\c3ccc4c(cnn4Cc4ccc(Cl)cc4C(F)(F)F)c3)C2=O)C1 [Compound 133, (5Z)-5-({1-[4-Chloro-2-(trifluoromethyl)benzyl]-1H-indazol-5-yl}methylidine)-3-(1-methylazetidin-3-yl)-1,3-thiazolidine-2,4-dione] |
| 45 nM | CN1CCC(CN2C(=O)S/C(=C\c3ccc4c(cnn4Cc4ccc(Cl)cc4C(F)(F)F)c3)C2=O)CC1 [Compound 134, (5Z)-5-({1-[4-Chloro-2-(trifluoromethyl)benzyl]-1H-indazol-5-yl}methylidene)-3-[(1-methylpiperidin-4-yl)methyl]-1,3-thiazolidine-2,4-dione] |
| 19 nM | CN1CCC(N2C(=O)S/C(=C\c3ccc4c(cnn4Cc4ccc(Cl)cc4C(F)(F)F)c3)C2=O)CC1 [Compound 135, (5Z)-5-({1-[4-Chloro-2-(trifluoromethyl)benzyl]-1H-indazol-5-yl}methylidene)-3-(1-methylpiperidin-4-yl)-1,3-thiazolidine-2,4-dione] |
| 35 nM | CN1CCCC(N2C(=O)S/C(=C\c3ccc4c(cnn4Cc4ccc(Cl)cc4C(F)(F)F)c3)C2=O)C1 (stereo not drawn) [Compound 136, (5Z)-5-({1-[4-Chloro-2-(trifluoromethyl)benzyl]-1H-indazol-5-yl}methylidene)-3-(1-methylpiperidin-3-yl)-1,3-thiazolidine-2,4-dione] |
| 66 nM | O=C1S/C(=C\c2ccc3c(cnn3Cc3ccc(Cl)cc3C(F)(F)F)c2)C(=O)N1Cc1ccccn1 [Compound 137, (5Z)-5-({1-[4-Chloro-2-(trifluoromethyl)benzyl]-1H-indazol-5-yl}methylidene)-3-(pyridin-2-ylmethyl)-1,3-thiazolidine-2,4-dione] |
| 16 nM | Cn1cncc1CN1C(=O)S/C(=C\c2ccc3c(cnn3Cc3ccc(Cl)cc3C(F)(F)F)c2)C1=O [Compound 139, (5Z)-5-({1-[4-Chloro-2-(trifluoromethyl)benzyl]-1H-indazol-5-yl}methylidene)-3-[(1-methyl-1H-imidazol-5-yl)methyl]-1,3-thiazolidine-2,4-dione] |
| 32 nM | CN1CCCC1CCN1C(=O)S/C(=C\c2ccc3c(cnn3Cc3ccc(Cl)cc3C(F)(F)F)c2)C1=O (stereo not drawn) [Compound 140, (5Z)-5-({1-[4-Chloro-2-(trifluoromethyl)benzyl]-1H-indazol-5-yl}methylidene)-3-[2-(1-methylpyrrolidin-2-yl)ethyl]-1,3-thiazolidine-2,4-dione] |
| 183 nM | CCOC(=O)[C@@H]1CCC[C@H]1N1C(=O)S/C(=C\c2ccc3c(cnn3Cc3ccc(Cl)cc3C(F)(F)F)c2)C1=O [Compound 141, Ethyl (1R,2R)-2-[(5Z)-5-({1-[4-chloro-2-(trifluoromethyl)benzyl]-1H-indazol-5-yl}methylidene)-2,4-dioxo-1,3-thiazolidin-3-yl]cyclopentanecarboxylate] |
| 38 nM | O=C(O)[C@@H]1CCC[C@H]1N1C(=O)S/C(=C\c2ccc3c(cnn3Cc3ccc(Cl)cc3C(F)(F)F)c2)C1=O [Compound 142, (1R,2R)-2-[(5Z)-5-({1-[4-Chloro-2-(trifluoromethyl)benzyl]-1H-indazol-5-yl}methylidene)-2,4-dioxo-1,3-thiazolidin-3-yl]cyclopentanecarboxylic acid] |
| 31 nM | CN1CC[C@@H](N2C(=O)S/C(=C\c3ccc4c(cnn4Cc4ccc(Cl)cc4C(F)(F)F)c3)C2=O)C1 [Compound 144, (5Z)-5-({1-[4-Chloro-2-(trifluoromethyl)benzyl]-1H-indazol-5-yl}methylidene)-3-[(3R)-1-methylpyrrolidin-3-yl]-1,3-thiazolidine-2,4-dione] |
| 27 nM | O=C1S/C(=C\c2ccc3c(cnn3Cc3ccc(Cl)cc3C(F)(F)F)c2)C(=O)N1C[C@@H]1CCCN1 [Compound 145, (5Z)-5-({1-[4-Chloro-2-(trifluoromethyl)benzyl]-1H-indazol-5-yl}methylidene)-3-[(2S)-pyrrolidin-2-ylmethyl]-1,3-thiazolidine-2,4-dione] |
| 36 nM | COCCN1CCC(N2C(=O)S/C(=C\c3ccc4c(cnn4Cc4ccc(Cl)cc4C(F)(F)F)c3)C2=O)CC1 [Compound 147, (5Z)-5-({1-[4-Chloro-2-(trifluoromethyl)benzyl]-1H-indazol-5-yl}methylidene)-3-[1-(2-methoxyethyl)piperidin-4-yl]-1,3-thiazolidine-2,4-dione] |
| 57 nM | O=C1S/C(=C\c2ccc3c(cnn3Cc3ccc(Cl)cc3C(F)(F)F)c2)C(=O)N1C1CCN(CC(F)(F)F)CC1 [Compound 150, (5Z)-5-({1-[4-Chloro-2-(trifluoromethyl)benzyl]-1H-indazol-5-yl}methylidene)-3-[1-(2,2,2-trifluoroethyl)piperidin-4-yl]-1,3-thiazolidine-2,4-dione] |

| Structure (SMILES) | EC50 |
| --- | --- |
| O=C1S/C(=C\c2ccc3c(cnn3Cc3ccc(Cl)cc3C(F)(F)F)c2)C(=O)N1[C@@H]1CN2CCC1CC2 [Compound 132, (5Z)-3-[(3S)-1-Azabicyclo[2.2.2]oct-3-yl]-5-({1-[4-chloro-2-(trifluoromethyl)benzyl]-1H-indazol-5-yl}methylidene)-1,3-thiazolidine-2,4-dione] | 18 nM |
| O=C1S/C(=C\c2ccc3c(cnn3Cc3ccc(Cl)cc3C(F)(F)F)c2)C(=O)N1Cc1cc(O)no1 [Compound 138, (5Z)-5-({1-[4-Chloro-2-(trifluoromethyl)benzyl]-1H-indazol-5-yl}methylidene)-3-[(3-hydroxyisoxazol-5-yl)methyl]-1,3-thiazolidine-2,4-dione] | 42 nM |
